Assay results published in patent US20120065179A1, “PRODRUG COMPRISING BETA-KETO CARBOXYLIC ACID, BETA-KETO CARBOXYLIC ACID SALT OR BETA-KETO CARBOXYLIC ACID ESTER FOR DRUG DELIVERY” (YKI, Ytemiska Institutet AB, priority 2009, published 2012).
In brackets after ≈: the same amount, converted by molar mass. Several values for one entry are separate records, joined by “and”; a condition that tells them apart may be missing. Identical values can stand only once. Like-named read-outs stand apart in the source and are kept apart here. Marks after values point to notes of the source that are not given here. Blank lines part the entries; values can stand above or below the compound they belong to.

Legend:
[1] = water at 25° C.; Sepassi et al, 2007; cited from earlier work
[2] = Storage stability of beta-keto calcium salt prodrug of Nabumetone (17 days at 60° C., HPLC); assay type: physicochemical
[3] = Aqueous solubility of sodium beta-keto salt prodrug of Nabumetone (Example 13b); assay type: physicochemical
Protocol: 12.1 mg of the of ethyl-5-(6-methoxy-2-naphthyl)-beta-keto-pentanoate product prepared and purified as in Example 8 was mixed with 25 mL of a 0.5 M aqueous solution NaOH and homogenised on a vortex mixer. […] 15 minutes after preparation of the sample, the sample was transferred to an oil bath set at 37° C. with continuous gentle magnetic stirring, and kept there for 3.5 hours. Crystalline flakes remained in the sample at the end of the 3.5 hours heat-treatment, and the sample was thereafter centrifuged and the clear liquid above the sedimented crystals was analysed by HPLC as described above.
After storage around one hour at room temperature a fraction of the sample was then filtered twice through a 0.2 μm filter (Whatman, 0.2 μm PS) fitted to a syringe to give a clear solution. 200 μL of this filtered solution was transferred, in a tightly closed vessel, to an oil bath at 95° C. and kept at this temperature for about 5 hours to bring about quantitative decarboxylation of the labile, dissolved beta-keto carboxylic salt prodrug derivative of Nabumetone.
The heated sample was then mixed with 35 mL of mobile phase (see Example 1) whereby a few solid crystals (comprising Nabumetone) was seen to not dissolve. In order to assure a correct sampling for HPLC analysis, 5 mL of the 35 mL sample was filtered through a 0.2 μm filter, after the whole 35 mL sample had been pH adjusted to 4.21 by 300 μL 0.1 M HCl+100 μL 1 M HCl, to assure that the pH of the sample was close to the pH of the mobile phase itself (pH 4.30). The filtered solution was thereafter analysed by HPLC and found to contain 0.777 mg Nabumetone per liter. If recalculated to the corresponding concentration of nabumetone equivalents in the form of the beta-keto salt prodrug present in dissolved form in the filtered 200 μl sample that was subsequently heat-treated to form Nabumetone above, the obtained concentration corresponds to a Nabumetone concentration of 136.7 mg Nabumetone per liter in the clear aqueous solution, at room temperature, before the heat-treatment at 95° C.

[4] = In-vitro hydrolysis of Nabumetone beta-keto ester pro-prodrug and release of Nabumetone in model blood electrolyte solution at 37° C.; assay type: physicochemical; settings: for Nabumetone formed in the solution: under-estimated, precipitating Nabumetone compromised sampling
[5] = Sustained release of Nabumetone from beta-keto sodium salt prodrug in phosphate buffer at blood pH and 37° C.; assay type: physicochemical; settings: released from beta-keto salt prodrug, phosphate buffer pH about 7.4, 37° C.
Protocol: 20.91 mg of the product synthesised as described in Example 8 (however in this case not purified by the chromatographic step in Example 8) was mixed with 1 ml 0.5 M NaOH at room temperature, whereby a portion of the sample was dissolved. After 30 minutes the mixture was placed in an oven at 37° C., and 10 μl samples was taken at regular intervals, diluted with 1 ml mobile phase (as in Example 1), and analyzed by HPLC, using UV-detection at 240 nm. 3.0 hours after initiation of the saponification reaction, the precursor (retention time 4.6 min) could no longer be detected, and the precursor peak was replaced by a peak from the intermediary beta-keto salt prodrug (retention time 2.3 minutes). At this point in time, a solution of 9 ml H2O and 0.0762 g NaH2PO4 was added to the sample, in order to create a NaH2PO4/Na2HPO4 pH buffer by neutralization of the NaOH remaining in the sample. […] The sample was again placed in the oven at 37° C. and the decarboxylation of the beta-keto salt in solution, gradually giving the commercially available drug Nabumetone, was followed by HPLC by taking 100 μl samples at regular intervals and diluting them with 1 ml mobile phase (see Example 1 above) before injection on the HPLC. It can be seen from the data that Nabumetone was continuously released into the solution via the spontaneous, non-enzymatic decarboxylation of the dissolved prodrug sodium salt, over a period of more than 120 hours. The half-life of the prodrug was estimated to be about 70 hours in this medium and under the conditions used.

[6] = Storage stability of benzoylacetate salts and their corresponding acid (HPLC or gravimetric); assay type: physicochemical; settings: solid
Protocol: A 0.2 M solution of ethyl benzoyl acetate (90%, Sigma Aldrich) in 0.5 M NaOH (aq) was prepared at room temperature and stirred for typically 5-24 hours, still at room temperature. After this time a major part of the ethyl benzoyl acetate had been transformed into dissolved sodium benzoyl acetate, as evidenced by monitoring the reaction by analysis of samples by reversed phase HPLC. Some acetophenone and remaining ethyl benzoyl acetate were typically present in the samples, but in minor amounts. The method employed a C8 column with an inner diameter of 150×4.6 mm and 5 micron particles. The mobile phase consisted of 400 ml deionized water+600 ml acetonitrile+0.196 g H3PO4 (85%)+2.760 g NaH2PO4*H2O. The flow rate was set to 1.0 mL/min and UV detection at 254 nm was employed for analysis of the compounds ethylbenzoylacetate (precursor), benzoylacetate (model prodrug) and acetophenone (model drug).
The storage stability of the sodium and calcium salts of benzoylacetate, and of benzoylacetic acid, in solid form, and in aqueous solutions, was investigated by storage of samples under various conditions (see Table 3a above) with regular HPLC- or gravimetric measurements of the samples from time to time. Samples denoted “neutralized” were prepared from a solution prepared as described in Example 1, which was neutralized with diluted HCl after performing the steps in Example 1.
From the data it can be concluded that the best storage stability at room temperature is obtained by storage in the form of the calcium salt.

[7] = Aqueous solubility of benzoylacetate salts (Example 13a); settings: water
[8] = Re-activation of storage stabile beta-keto calcium salt by dissolution, release of ketone (odour); assay type: physicochemical
Protocol: 25 mg of the precipitated and dried calcium salt prepared in Example 2, was, after being subjected to the storage stability test of Example 4, dissolved in 5.66 g of tap water and boiled for two minutes.

rat = settings: cited from earlier work

Relative amount of calcium salt beta-keto prodrug/Nabumetone remaining after 17 days at 60° C. ([2]; 408 h): 45.3%
Obtained value (area units) ([2]; dry calcium salt after 17 days at 60° C., redissolved in water, HPLC): 1315 area units
Expected value if no breakdown occured during storage and a 100% yield was obtained upon precipitation with calcium chloride ([2]; recalculated for dilution): 90 area units
Nabumetone found in filtered solution by HPLC ([3]; 200 μL filtered prodrug solution decarboxylated at 95° C. for about 5 hours, mixed with 35 mL mobile phase): 0.777 mg Nabumetone per liter
Area at retention time 3.8 minutes characteristic for detection of Nabumetone ([3]; clear liquid after 3.5 h at 37° C. in 0.5 M NaOH, 200 μL diluted with 5.0 ml mobile phase): 59 arbitrary units
storage time after which sedimenting crystalline flakes of Nabumetone were detected in the sample ([4]; model blood solutes solution): 100 to 150 h
Nabumetone staying in a stabile dispersion (theoretical concentration) ([4]; model blood solutes solution with surface active beta-keto anion prodrug): 40 mg/L
Nabumetone formed in the solution ([4]; model blood solutes solution, Time 96.8 hours): (2656)* mg/L
Nabumetone formed in the solution ([4]; model blood solutes solution, Time 121.25 hours): (2715)* mg/L
Nabumetone formed in the solution ([4]; model blood solutes solution, Time 145.0 hours): (2423)* mg/L
Nabumetone formed in the solution ([4]; model blood solutes solution, Time 172.6 hours): (3508)* mg/L
Nabumetone formed in the solution ([4]; model blood solutes solution, Time 197.3 hours): (3240)* mg/L
Nabumetone formed in the solution ([4]; model blood solutes solution, Time 218.4 hours): (3859)* mg/L
Nabumetone formed in the solution ([4]; model blood solutes solution, Time 293.7 hours): (3013)* mg/L
Nabumetone (HPLC area @ 3.8 min) ([5]; 3.25 h after initiation of saponification): 0
Nabumetone (HPLC area @ 3.8 min) ([5]; 5.1 h after initiation of saponification): 0
Nabumetone (HPLC area @ 3.8 min) ([5]; 21.45 h after initiation of saponification): 5265
Nabumetone (HPLC area @ 3.8 min) ([5]; 24.25 h after initiation of saponification): 5388 and 5496
Nabumetone (HPLC area @ 3.8 min) ([5]; 28.15 h after initiation of saponification): 5804
Nabumetone (HPLC area @ 3.8 min) ([5]; 45.4 h after initiation of saponification): 10083
Nabumetone (HPLC area @ 3.8 min) ([5]; 50 h after initiation of saponification): 11400
Nabumetone (HPLC area @ 3.8 min) ([5]; 78 h after initiation of saponification): 13359
Nabumetone (HPLC area @ 3.8 min) ([5]; 117 h after initiation of saponification): 18156
Nabumetone (HPLC area @ 3.8 min) ([5]; 194 h after initiation of saponification): 22484
Compound: COc1ccc2cc(CCC(C)=O)ccc2c1 [Nabumetone, 4-(6-methoxy-2-naphthyl)-2-butanone]
Solubility [1]: 4.7 mg/L (≈ 20.6 µM)

Absolute amount of calcium benzoylacetate in sample (wt %, from HPLC) ([6]; 1 days at room T and typical indoor humidity, 0 days at 50% RH and room T, 0 days at 60° C. in oven): 35.9 wt %
Absolute amount of calcium benzoylacetate in sample (wt %, from HPLC) ([6]; 1.9 days at room T and typical indoor humidity, 0 days at 50% RH and room T, 0 days at 60° C. in oven): 34.2 wt %
Absolute amount of calcium benzoylacetate in sample (wt %, from HPLC) ([6]; 8 days at room T and typical indoor humidity, 0 days at 50% RH and room T, 0 days at 60° C. in oven): 43.0 wt %
Absolute amount of calcium benzoylacetate in sample (wt %, from HPLC) ([6]; 9 days at room T and typical indoor humidity, 0 days at 50% RH and room T, 103 days at 60° C. in oven): 45.6 wt %
Absolute amount of calcium benzoylacetate in sample (wt %, from HPLC) ([6]; 9 days at room T and typical indoor humidity, 103 days at 50% RH and room T, 0 days at 60° C. in oven): 32.1 wt %
Absolute amount of calcium benzoylacetate in sample (wt %, from HPLC) ([6]; 28 days at room T and typical indoor humidity, 0 days at 50% RH and room T, 0 days at 60° C. in oven): 33.1 wt %
Absolute amount of calcium benzoylacetate in sample (wt %, from HPLC) ([6]; 112 days at room T and typical indoor humidity, 0 days at 50% RH and room T, 0 days at 60° C. in oven): 40.4 wt %
Solubility ([7]; as Ca(benzoylacetate)2, corrected for 40 wt % content): 69 mM
Solubility (mM, as acetophenone equivalents) ([7]; benzoylacetate in the solution, corrected for 40 wt % content): 138 mM
solubility limit ([7]; dry calcium salt sample containing only 40 wt % calcium benzoyl acetate): ~63 mg/mL
release of acetophenone (odour) ([8]; 25 mg dissolved in 5.66 g tap water and boiled for two minutes, after storage stability test): strong odour of acetophenone
Compound: O=C([O-])CC(=O)c1ccccc1.O=C([O-])CC(=O)c1ccccc1.[Ca+2] [calcium benzoylacetate, Ca(benzoylacetate)2]
release of acetophenone (odour) ([8]; similar amount kept in dry form in an identical beaker): did not give rise to any acetophenone odour

Compound: CCN [ethyl amine]
LD50 (rat): 280 mg/kg

Compound: CN [methyl amine]
LD50 (rat): 100 mg/kg
